# Legend:
# Type in all cases: cell-based
# [1] = tested on: C. neo; assay: standardized in vitro susceptibility test, C. neo; details: yes/no
# [2] = tested on: Candida w/ FLu.; assay: standardized in vitro susceptibility test, Candida w/ FLu.; details: with FLu.; yes/no
# [3] = tested on: Asp; assay: standardized in vitro susceptibility test, Asp alone (MEC)
# [4] = tested on: Asp/Caspo; assay: standardized in vitro susceptibility test, Asp/Caspo; details: with Caspo
SMILES,Active C. neo [1],Active Candida w/ FLu. [2],Active Asp alone (MEC) ([3]; yes/no),Active Asp Caspo ([4]; concentration) [µg/mL],Active Asp Caspo ([4]; yes/no),Active Asp alone (MEC) ([3]; MEC concentration)
CCCC/C=C/C[C@@H]1/C=C(\C)C[C@H](C)C[C@H](OC)[C@H]2O[C@@](O)(C(=O)C(=O)N3CCCC[C@H]3C(=O)O[C@H](/C(C)=C/[C@@H]3CC[C@@H](O)[C@H](OC)C3)[C@H](C)[C@@H](O)CC1=O)[C@H](C)C[C@@H]2OC [Compound 3],yes,yes,no,4,yes,–
CCC(C)C/C=C/C[C@@H]1/C=C(\C)C[C@H](C)C[C@H](OC)[C@H]2O[C@@](O)(C(=O)C(=O)N3CCCC[C@H]3C(=O)O[C@H](/C(C)=C/[C@@H]3CC[C@@H](O)[C@H](OC)C3)[C@H](C)[C@@H](O)CC1=O)[C@H](C)C[C@@H]2OC (some centres unmarked) [Compound 4],yes,yes,no,8,yes,–
CO[C@H]1C[C@@H](C)C/C(C)=C/[C@@H](C/C=C/c2ccc(C(=O)O)cc2)C(=O)C[C@H](O)[C@@H](C)[C@@H](/C(C)=C/[C@@H]2CC[C@@H](O)[C@H](OC)C2)OC(=O)[C@@H]2CCCCN2C(=O)C(=O)[C@]2(O)O[C@H]1[C@@H](OC)C[C@H]2C [Compound 2],yes,no,yes,–,Yes,–
CO[C@H]1C[C@@H](C)C/C(C)=C/[C@@H](C/C=C/CC(=O)O)C(=O)C[C@H](O)[C@@H](C)[C@@H](/C(C)=C/[C@@H]2CC[C@@H](O)[C@H](OC)C2)OC(=O)[C@@H]2CCCCN2C(=O)C(=O)[C@]2(O)O[C@H]1[C@@H](OC)C[C@H]2C [Compound 5],yes,yes,yes,1,yes,(8 ug/mL)

# Source: US11000514B2, “Antifungal compounds” (Duke University, priority 2014, dated 2021)
